Assay: Stability of intravenous stock solution
Assay type: physicochemical
Conditions: stock solution 10 mg/mL in phosphate buffered saline adjusted to pH about 7.4 with NaOH; at 40 C
Experimental: Preparation Procedures: An intravenous formulation will be made as a stock solution (10 mg/mL) one day prior to the start of dosing consisting of phosphate buffered saline adjusted to pH about 7.4 with NaOH. The dosing formulations will be prepared on the day of dosing by diluting the appropriate amount of the stock solution with D5W to obtain concentrations of 3.14 mg/mL of Compound 3 and then will be sterile filtered using a 0.20 micron filter about few hours prior to the start of dosing. The test formulation was stored at approximately 4° C. protected from light. The vehicle used for IV introduction was phosphate buffered saline consisting of 0.0144% (w/v) of KH2PO4, 0.90% (w/v) of NaCL, 0.0795% (w/v) of Na2HPO4, 0.325% of NaOH (1N) and […] sterile water for injection with the resulting pH of approximately 7.4. The stock solution (10 mg/mL) is stable for 7 days at 40 C.

For `N#Cc1cc(-c2ccc(OP(=O)(O)O)c(F)c2)cc2ccc(OP(=O)(O)O)cc12` [Compound 3], the “Time over which stock solution is stable” value was 7 days.
